In paper PMC6325233, “A Novel Actin Binding Drug with In Vivo Efficacy” (Antimicrobial Agents and Chemotherapy, 2018):

What was measured:
[1] = system: Saccharomyces cerevisiae BY4741; assay: MIC susceptibility testing; type: cell-based
Experimental: Occidiofungin was purified from a liquid culture of Burkholderia contaminans MS14 as previously described ([21]). MIC susceptibility testing was performed according to the CLSI M27-A3 and M38-A2 standards for the susceptibility testing of yeasts and filamentous fungi, respectively. S. cerevisiae deletion mutants were obtained from the commercially available BY4741 deletion library (Thermo Scientific).
The addition of an alkyne reactive group to the primary amine on occidiofungin was performed initially at the Texas A&M Natural Products LINCHPIN Laboratory at Texas A&M University and subsequently at the CPRIT Synthesis and Drug-Lead Discovery Laboratory at Baylor University (see Fig. S1 in the supplemental material). A solution of triethylamine and acetonitrile was prepared by dissolving 10 µl of triethylamine in 11.7 ml of acetonitrile. A stock solution of acetonitrile and the reagents was prepared by adding 2,5-dioxopyrrolidin-1-yl hex-5-ynoate (1.40 mg, 6.69 µmole, 8.2 equivalent) to 1.08 ml of the triethylamine and acetonitrile solution prepared above. Occidiofungin (1 mg, 0.82 µmole, 1 equiv.) was added to the stock solution of acetonitrile and reagents (400 µl) containing triethylamine (0.34 µl, 2.46 µmole, 3 equiv.) and 2,5-dioxopyrrolidin-1-yl hex-5-ynoate ([…], 2.46 µmole, 3 eq). […]

C. albicans = assay: Murine model of vulvovaginal candidiasis, efficacy; type: in vivo, BALB/c mice infected with C. albicans
Experimental: The murine model of vulvovaginal candidiasis has been reported ([59]). A variation of this method was used. Three groups of six mice were used to evaluate two concentrations of occidiofungin (100 μg and 50 μg) and vehicle control (0.3% Noble agar). Briefly, 6- to 8-week-old BALB/c mice were treated subcutaneously with 200 ng per mouse of β-estradiol 17-valerate 3 days prior to inoculation with C. albicans (day −3). A subcutaneous dose of estradiol was administered every 3 days (day 0 [D0] and D3) until the end of the experiment to induce pseudoestrus. Intravaginal inoculations of approximately 20 μl of 2.5 × 10^6 CFU/ml of C. albicans were performed on D0 of the VVC study. On the same day of inoculation (D0), another subcutaneous injection of estradiol was made. A lyophilized powder of occidiofungin containing either 100 μg or 50 μg of occidiofungin was suspended in 20 μl of warm 0.3% Noble agar before the intravaginal inoculations. Drug treatments were performed on D2, D3, and D4 of the study. On day 5 (D5), the vaginal lumen was lavaged with 100 μl of sterile PBS with a 200-µl pipette tip. Serial dilutions and total CFU per vaginal lavage were determined by plating on YPD plates containing 50 μg/ml of chloramphenicol. Body weights, signs of vaginal irritation such as swelling or bleeding, and clinical signs of discomfort (stereotypical stretching behavior) were monitored. Statistical analyses (t tests) were performed to compare the control group to the treated groups and to compare differences between treated groups. All the analyses were 2 sided, with a P value of <0.05 considered statistically significant.

Substance: occidiofungin
- MIC ([1]; CLSI M27-A3, alkyne-OF vs native comparison (S2 Table)): 0.125 µg/mL
- MIC ([1]; parent strain of deletion mutants (S4 Table)): 0.25 µg/mL
- difference between the two treated groups (C. albicans; 100 vs 50 µg, P = 0.33): no statistically significant difference between the two treated groups
- reduction in fungal load (C. albicans; intravaginal 100 and 50 µg in 0.3% Noble agar, once per day for 3 days, six mice per group, vs vehicle P < 0.001): 2 -log
- efficacious concentration lower than azole-based treatment (C. albicans; vs azole-based treatment methods): 10 -fold
